Assay results: ChEMBL document CHEMBL1201862, “PubChem BioAssay data set” (2004)
Counter-ions that a name gives are not always drawn.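 How tested: cells in 96-well plates exposed to compound for 48 hours at five concentrations. The concentration for 50% growth inhibition is given as GI50.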 Calls of active or inactive are those of the source. Cut-off read from the data, not from the text of the source: active = GI50 up to about 1.1 µM and inactive = higher.

How the values were obtained:
Experiment in all cases: DTP human tumour cell line panel, 48 h
786-0 = system: 786-0
A498 = system: A498
CAKI-1 = system: CAKI-1
HCT-116 = system: HCT-116
HL-60 = system: HL-60
HOP-92 = system: HOP-92
KM12 = system: KM12
LOX IMVI = system: LOX IMVI
M14 = system: M14
NCI-H226 = system: NCI-H226
NCI-H460 = system: NCI-H460
NCI-H522 = system: NCI-H522
NCI/ADR-RES = system: NCI/ADR-RES
PC-3 = system: PC-3
RXF 393 = system: RXF 393
SF-295 = system: SF-295
SNB-75 = system: SNB-75
SR = system: SR
T47D = system: T47D
HCC 2998 = system: HCC 2998

Row | SMILES | GI50 (786-0) | GI50 (A498) | GI50 (CAKI-1) | GI50 (HCT-116) | GI50 (HL-60) | GI50 (HOP-92) | GI50 (KM12) | GI50 (LOX IMVI) | GI50 (M14) | GI50 (NCI-H226) | GI50 (NCI-H460) | GI50 (NCI-H522) | GI50 (NCI/ADR-RES) | GI50 (PC-3) | GI50 (RXF 393) | GI50 (SF-295) | GI50 (SNB-75) | GI50 (SR) | GI50 (T47D) | GI50 (HCC 2998)
1 | CC(C)=CCc1c(O)c(CC=C(C)C)c2oc3c(c(=O)c2c1O)C(C=C(C)C)Oc1cc(O)ccc1-3 (centres undefined) | 6.98 µM (inactive) | 16.2 µM (inactive) | 5.87 µM (inactive) | 3.74 µM (inactive) | 5.85 µM (inactive) | 13.5 µM (inactive) | 2.94 µM (inactive) | 5.15 µM (inactive) | 7.69 µM (inactive) | 20.5 µM (inactive) | 4.49 µM (inactive) | 3.9 µM (inactive) | 12.1 µM (inactive) | 5.41 µM (inactive) | 3.12 µM (inactive) | 5.97 µM (inactive) | 4.07 µM (inactive) | 2.49 µM (inactive) | 3.5 µM (inactive) | –
2 | CC(=O)/N=C1/N(/C=C2\C(=O)Oc3ccccc3C2=O)C(=O)/C(=C/c2ccc(Cl)cc2Cl)N1C | > 100 µM (inactive) | 19.2 µM (inactive) | > 100 µM (inactive) | 81.1 µM (inactive) | 36.6 µM (inactive) | – | 66.8 µM (inactive) | 62.2 µM (inactive) | > 100 µM (inactive) | > 100 µM (inactive) | > 10 µM (inactive) | 94 µM (inactive) | > 100 µM (inactive) | > 100 µM (inactive) | > 100 µM (inactive) | > 100 µM (inactive) | 18.7 µM (inactive) | 17.4 µM (inactive) | > 100 µM (inactive) | > 100 µM (inactive)
3 | CCOP(=O)(OCC)/C(F)=C/c1ccc(F)cc1 | > 100 µM (inactive) | > 100 µM (inactive) | > 100 µM (inactive) | > 100 µM (inactive) | > 100 µM (inactive) | > 100 µM (inactive) | > 100 µM (inactive) | > 100 µM (inactive) | > 100 µM (inactive) | – | > 100 µM (inactive) | > 100 µM (inactive) | > 100 µM (inactive) | > 100 µM (inactive) | > 100 µM (inactive) | > 100 µM (inactive) | > 100 µM (inactive) | > 100 µM (inactive) | > 100 µM (inactive) | > 10 µM (inactive)
4 | O=C(N/N=C\c1ccc(Cl)cc1)Nc1ccc2ccccc2c1 | 19.3 µM (inactive) | 30.9 µM (inactive) | 41.7 µM (inactive) | 53.6 µM (inactive) | – | 29.6 µM (inactive) | 79.3 µM (inactive) | > 100 µM (inactive) | 59.2 µM (inactive) | > 100 µM (inactive) | 28.5 µM (inactive) | 38.9 µM (inactive) | 49.3 µM (inactive) | 30.3 µM (inactive) | 27.6 µM (inactive) | > 10 µM (inactive) | 30.5 µM (inactive) | 36.2 µM (inactive) | > 100 µM (inactive) | 67.5 µM (inactive)
5 | CCOC(=O)C(CC#Cc1ccc(C#CCC(NC(C)=O)C(=O)OCC)cc1)NC(C)=O (centres undefined) | > 100 µM (inactive) | > 100 µM (inactive) | > 100 µM (inactive) | > 100 µM (inactive) | > 100 µM (inactive) | – | > 100 µM (inactive) | > 100 µM (inactive) | > 100 µM (inactive) | > 100 µM (inactive) | > 100 µM (inactive) | > 100 µM (inactive) | > 100 µM (inactive) | > 100 µM (inactive) | > 100 µM (inactive) | > 100 µM (inactive) | > 100 µM (inactive) | > 100 µM (inactive) | > 100 µM (inactive) | > 100 µM (inactive)
6 | CC(C)(C)OC(=O)NCCCCCCC(=O)Cc1ccccc1 | > 100 µM (inactive) | > 100 µM (inactive) | > 100 µM (inactive) | 84.3 µM (inactive) | – | > 100 µM (inactive) | > 100 µM (inactive) | > 100 µM (inactive) | > 100 µM (inactive) | > 100 µM (inactive) | > 100 µM (inactive) | > 100 µM (inactive) | > 100 µM (inactive) | > 100 µM (inactive) | > 100 µM (inactive) | > 100 µM (inactive) | > 100 µM (inactive) | > 100 µM (inactive) | > 100 µM (inactive) | > 100 µM (inactive)
7 | C/C(=N\NC(=S)NCc1ccccc1)c1nc2cccnc2[nH]1 | 6.92 µM (inactive) | 17.3 µM (inactive) | 6.52 µM (inactive) | 3.69 µM (inactive) | 3.71 µM (inactive) | 4.37 µM (inactive) | 6.34 µM (inactive) | 6.12 µM (inactive) | 6.01 µM (inactive) | 4.44 µM (inactive) | 4.29 µM (inactive) | 15.1 µM (inactive) | 9.98 µM (inactive) | 8.95 µM (inactive) | – | 6.41 µM (inactive) | 20.2 µM (inactive) | 4.62 µM (inactive) | 9.1 µM (inactive) | 20.1 µM (inactive)
8 | N=C(N)NCCCC(NC(=O)OCCCCn1ccc(N)nc1=O)C(=O)O (centres undefined) | > 100 µM (inactive) | > 100 µM (inactive) | > 100 µM (inactive) | > 100 µM (inactive) | > 100 µM (inactive) | > 100 µM (inactive) | > 100 µM (inactive) | > 100 µM (inactive) | > 100 µM (inactive) | 4.26 µM (inactive) | > 100 µM (inactive) | – | > 100 µM (inactive) | > 100 µM (inactive) | > 100 µM (inactive) | > 100 µM (inactive) | > 100 µM (inactive) | > 100 µM (inactive) | > 100 µM (inactive) | > 100 µM (inactive)
9 | CC1=NN(c2nc(N)nc(CSc3nc4n(c(=S)n3)CCN4)n2)C(C)(C)C1 | 93.5 µM (inactive) | 39.7 µM (inactive) | 25.2 µM (inactive) | > 100 µM (inactive) | > 100 µM (inactive) | 18.6 µM (inactive) | > 100 µM (inactive) | 43.6 µM (inactive) | 67.9 µM (inactive) | 15 µM (inactive) | > 100 µM (inactive) | – | 30.1 µM (inactive) | 30.1 µM (inactive) | 15.6 µM (inactive) | 22.9 µM (inactive) | 15.3 µM (inactive) | > 100 µM (inactive) | 21.7 µM (inactive) | > 100 µM (inactive)
10 | CC(=O)/C(C)=N/NC(=O)c1ccccc1O | > 10 µM (inactive) | 47.9 µM (inactive) | > 10 µM (inactive) | > 10 µM (inactive) | – | > 10 µM (inactive) | > 10 µM (inactive) | > 10 µM (inactive) | > 10 µM (inactive) | > 10 µM (inactive) | > 10 µM (inactive) | > 100 µM (inactive) | > 100 µM (inactive) | > 100 µM (inactive) | > 10 µM (inactive) | > 10 µM (inactive) | > 10 µM (inactive) | 41.6 µM (inactive) | > 100 µM (inactive) | > 10 µM (inactive)
11 | CCN(CC)CCCNc1ccc([N+](=O)[O-])c2nc3ccccc3c(N)c12 | 0.445 µM (active) | 2.32 µM (inactive) | 4.32 µM (inactive) | 0.544 µM (active) | 0.514 µM (active) | 1.43 µM (inactive) | 0.392 µM (active) | 0.482 µM (active) | 1.08 µM (active) | 2.67 µM (inactive) | 0.379 µM (active) | – | 0.668 µM (active) | 0.804 µM (active) | 0.37 µM (active) | 0.581 µM (active) | 1.19 µM (inactive) | 0.512 µM (active) | 0.867 µM (active) | –
12 | CN1CCN(c2ncc3c(n2)sc2c(=O)n(-c4ccccc4)cnc23)CC1 | > 100 µM (inactive) | > 100 µM (inactive) | > 100 µM (inactive) | > 100 µM (inactive) | – | > 100 µM (inactive) | > 100 µM (inactive) | > 100 µM (inactive) | > 100 µM (inactive) | > 100 µM (inactive) | > 100 µM (inactive) | > 100 µM (inactive) | > 100 µM (inactive) | > 100 µM (inactive) | > 100 µM (inactive) | > 100 µM (inactive) | > 100 µM (inactive) | > 100 µM (inactive) | > 100 µM (inactive) | > 100 µM (inactive)
13 | C=CCN1CCN([C@H](c2ccc(C(=O)N(CC)CC)cc2)c2cccc(OC)c2)CC1 | > 25 µM (inactive) | > 25 µM (inactive) | > 25 µM (inactive) | > 25 µM (inactive) | > 25 µM (inactive) | 16.8 µM (inactive) | > 25 µM (inactive) | – | > 25 µM (inactive) | > 25 µM (inactive) | – | > 25 µM (inactive) | > 25 µM (inactive) | > 25 µM (inactive) | – | > 25 µM (inactive) | – | > 25 µM (inactive) | > 25 µM (inactive) | –
14 | O=C1c2ccc3c4ccc5c6c(ccc(c7ccc(c2c37)C(=O)N1CCN1CCCCC1)c64)C(=O)N(CCN1CCCCC1)C5=O | > 100 µM (inactive) | > 100 µM (inactive) | > 100 µM (inactive) | > 100 µM (inactive) | > 100 µM (inactive) | > 100 µM (inactive) | > 100 µM (inactive) | > 100 µM (inactive) | > 100 µM (inactive) | > 100 µM (inactive) | > 100 µM (inactive) | – | > 100 µM (inactive) | > 100 µM (inactive) | > 100 µM (inactive) | > 100 µM (inactive) | – | > 100 µM (inactive) | > 100 µM (inactive) | > 100 µM (inactive)
15 | CCc1ccc2c(c1)N(CC(C)CN(C)C)c1ccccc1S2 (centres undefined) [ETYMEMAZINE HYDROCHLORIDE] | 4.7 µM (inactive) | 7.38 µM (inactive) | 5.06 µM (inactive) | 3.65 µM (inactive) | 2.65 µM (inactive) | 4.66 µM (inactive) | 3.61 µM (inactive) | 3.54 µM (inactive) | 2.12 µM (inactive) | 9.86 µM (inactive) | 3.33 µM (inactive) | 2.87 µM (inactive) | 5.22 µM (inactive) | 4.93 µM (inactive) | 2.79 µM (inactive) | 9.64 µM (inactive) | 3 µM (inactive) | 0.298 µM (active) | 3.66 µM (inactive) | –
